Results published in article PMC8557901 (Microbiology Spectrum, 2021).

Tests used:
Microsomal stability = assay type: in vitro ADME; settings: pH 7.4; female mouse microsomes (CD-1), 37°C; read-out: half-life (t1/2)
Experimental: The tested product and propranolol, used as a reference, were incubated in duplicate (reaction mixture volume of 0.5 ml) with female mouse microsomes (CD-1, 20 mg/ml; BD Gentest) at 37°C in a 50 mM phosphate buffer, pH 7.4, in the presence of MgCl2 (5 mM), NADP (1 mM), glucose-6-phosphate dehydrogenase (G6PD) (0.4 U/ml), and glucose-6-phosphate (5 mM). For the estimation of the intrinsic clearance, 50-μl aliquots were collected at 0, 5, 10, 20, 30, and 40 min and the reaction was stopped with 4 volumes of acetonitrile (ACN) containing the internal standard. After centrifugation at 10,000 × g for 10 min at 4°C, the supernatants were conserved at 4°C for immediate analysis or placed at −80°C in case of postponement of the analysis. Controls (time zero and final time point) in triplicate were prepared by incubation of the internal standard with microsomes denatured by acetonitrile. […] The chromatographic analysis, with a total duration of 4 min, was made with the following gradient: 0 < t < 0.2 min, 2% mobile phase B; 0.2 < t < 2 min, linear increase to 98% mobile phase B; 2 < t < 2.5 min, 98% mobile phase B; 2.5 < t < 2.6 min, linear decrease to 2% mobile phase B; 2.6 < t < 4 min, 2% mobile phase B. The quantification of each compound was obtained by converting the average of the ratios of the analyte/internal standard surfaces to the percentage of consumed product. […]

[1] = system: P. falciparum F32-ART5 and F32-TEM; assay: Recrudescence assay F32-ART5 versus F32-TEM; assay type: cell-based, Plasmodium falciparum; settings: 48 h drug exposure; M1 2.5 and 10 μM; artemisinin 18 μM
Experimental: The Plasmodium falciparum artemisinin-resistant strain F32-ART5 and its twin artemisinin-sensitive line F32-TEM ([30], [31]) were cultivated at 37°C with 5% CO2 in human red blood cells (EFS [French Blood Bank]) diluted to 2% hematocrit in RPMI 1640 medium supplemented with 5% human serum (EFS) as previously reported ([47]).
A recrudescence assay was performed to evaluate the ability of the F32-ART5 parasite line to survive drug exposure in comparison to that of the F32-TEM parasite line ([30], [31]) in order to evaluate the risk of cross-resistance between artemisinin and M1. D-Sorbitol-synchronized ring-stage parasites at 3% parasitemia (2% hematocrit) were exposed to the drug for 48 h. After drug exposure, parasite cultures were washed with RPMI 1640 medium and replaced in normal drug-free culture conditions. The time to parasite recrudescence was determined as the time required to reach initial parasitemia. […] Each experiment, performed in parallel for F32-ART5 and F32-TEM cultivated under the same conditions to generate paired results, was carried out at least three times independently and data statistically analyzed.
A statistical analysis (log-rank test) was carried out on data from the recrudescence assay and the QSA using a Kaplan-Meier survival analysis considering censored data. The final event was defined as the time necessary for cultures to reach initial parasitemia. […]

[2] = system: P. cynomolgi liver-stage parasites in simian primary hepatocytes; assay: In vitro liver-stage development, P. cynomolgi in simian primary hepatocytes; assay type: cell-based, Plasmodium cynomolgi
Description: Primary human hepatocytes were isolated from liver segments obtained from adult patients undergoing partial hepatectomy (Service de Chirurgie Digestive, Hépato-Bilio Pancréatique, Hôpital Pitié Salpêtrière, Paris, France). Primary simian hepatocytes were isolated from liver segments collected from healthy Macaca fascicularis monkeys from CEA, Fontenay aux Roses, France. All hepatocytes were obtained using collagenase perfusion as previously described ([40]). […] Primary murine hepatocytes were isolated from liver segments collected from BALB/c mice. Human and murine hepatocytes were used directly after their isolation. Cells were seeded in 96-well plates (Falcon; Becton Dickinson Labware Europe, France) coated with collagen I (BD Bioscience, USA) at a density of 80,000 cells per well. […] For human hepatocytes, the complete medium was supplemented with 2% dimethyl sulfoxide (DMSO; Sigma-Aldrich, USA) before infection to preserve their differentiation.
On the day of infection, 3 · 10^4 sporozoites of P. falciparum, P. yoelii, and P. cynomolgi were added to their respective host cell cultures (human, murine, and simian). The infected culture plates were centrifuged for 10 min at 900 × g, allowing fast parasite sedimentation, and further incubated with serial dilutions of M1. Culture medium containing the appropriate drug concentration was refreshed daily, and cells were fixed at 48 h postinfection (p.i.) for infections with P. yoelii, 6 days p.i. for P. falciparum, or 8 days p.i. for P. cynomolgi. For the in vitro sporozoite invasion experiments, P. falciparum sporozoites were preincubated with 1, 10, and 100 μM M1 for 1 h at room temperature before hepatocyte infections. Three hours later, after sporozoite penetration into hepatocytes, cultures were washed and then further incubated with or without the presence of the drug during 6 days. DMSO was used as a negative control.
The number, size, and shape of the parasites were determined using a CellInsight high-content screening platform equipped with Studio HCS software (ThermoFisher Scientific). […] Host cell and parasite nuclei were labeled with DAPI (4′,6-diamidino-2-phenylindole). […] The custom script used for counting and measuring parasites first required identification of the objects based on a fluorescence intensity threshold. The object identity was then further validated based on size and morphological (shape) criteria. The presence of DAPI-associated fluorescence in the selected objects allowed their final selection and the rejection of false positives. […] The parasitic size reduction was calculated on the average object area using the total surface area of each selected object (μm^2).

Cc1ccc(-c2cc3nc(NC(C)(C)C)[nH]c(=O)c3s2)cc1 [Metabolite M1, 2-(tert-Butylamino)-6-(p-tolyl)thieno[3,2-d]pyrimidin-4(3H)-one]
half-life (Microsomal stability): 11 min
recrudescence of F32-ART5 versus F32-TEM (cross-resistance with artemisinin) [1]: no cross-resistance with artemisinin
concentration from which liver-stage development was fully inhibited ([2]; P. cynomolgi in simian hepatocytes): 14 µM
EC50 ([2]; Plasmodium cynomolgi, Hepatocyte, P. cynomolgi in simian primary hepatocytes (SH), mean ± SEM of triplicate experiments, read-out: EC50 against liver-stage parasites): 1.5 ± 0.3 µM
activity on P. cynomolgi hypnozoites ([2]; all tested concentrations (0.1 to 50 μM)): not active
SI (selectivity index) ([2]; hepatocyte CC50/EC50, P. cynomolgi (SH)): >40
Size reduction at 10 μM (%) ([2]; parasite (schizont) size, 10 μM, P. cynomolgi (SH)): 80%
